Measurements as given in patent US11224223B2, “Feeding deterrence of pests such as Hemiptera, Lepidoptera and Coleoptera” (BEDOUKIAN RESEARCH, INC., priority 2012, dated 2022).

Legend:
Assay type in all cases: in vivo
granary weevils = assay: Granary weevil test on treated wheat kernels; conditions: 5% in isopropyl alcohol, 3 week period
Protocol: Ten replicates of 30 kernels of wheat were immersed into the test compound and allowed to dry for 24 hours. The grains were then transferred to a test container, and 10 granary weevils were released. Test containers were secured and left for a 3 week period. At the end of this time, the wheat grains were examined for developing larvae and damage by larvae. […] Ten additional replicates treated with isopropyl alcohol were prepared to serve as controls.

Popillia japonica = assay: Japanese beetle feeding damage on basil; conditions: 3% compound; basil leaf disks; adult beetle; 24 h
Protocol: Japanese Beetle Feeding Damage on Basil For choice feeding assays, 3% alcohol solutions of the tested compounds are prepared. Disks (4.0 cm in diameter) are cut from basil leaves and are dipped in the test solutions or alcohol alone as a control. After the complete evaporation of the solvent, the disks are offered to 1 adult beetle. All dishes are placed in an incubator. Four replicates are used for each chemical. After 24 h, the remaining uneaten area of each basil leaf disk is measured using a scanner and software. The selective antifeeding rate (%) formula is [(C−T)/(C+T)]×100, and the non-selective antifeeding rate (%) formula is [(C−T)/C)]×100, where C and T are the areas consumed by the control and treated leaf disks, respectively.

Dermestid spp. = assay: Dermestid beetle feeding damage on silk fabric; conditions: 3% compound; undyed silk disks; late instar larvae; 1 week
Protocol: Dermestid Beetle Feeding Damage on Silk Fabric
For feeding assays, 3% alcohol solutions of the tested compounds are prepared. Disks (4.0 cm in diameter) of undyed silk fabric are dipped in the test solutions or alcohol alone as a control. After the complete evaporation of the solvent, the disks are offered to 10 late instar larvae. All dishes are placed in an incubator. Four replicates are used for each chemical. After 1 week, the remaining uneaten area of each silk disk is measured using a scanner and software. The selective antifeeding rate (%) formula is [(C−T)/(C+T)]×100, and the non-selective antifeeding rate (%) formula is [(C−T)/C)]×100, where C and T are the areas consumed by the control and treated silk disks, respectively.

Plodia interpunctella = assay: Feeding repellent assay for Indian meal moth larva on treated rice; conditions: 10% compound in a 5% Ethanol:95% water solution, third instar larvae, 1 week
Protocol: Feeding Repellent Assay for Indian Meal Moth Larva One gram of rice is weighed and treated with 2% by weight of each test chemical or ethanol as a control for each treatment and replicate. The grains are allowed to dry and then weighed again. Treated or control rice grains are placed in a petri dish. Third instar larvae are starved for 8 h and gently introduced into the center of each compartment. 20 larva are screened per treatment, and each experiment is repeated three times. The weight of rice grains is measured again after 1 week. The selective antifeeding rate (%) formula is [(C−T)/(C+T)]×100, and the non-selective antifeeding rate (%) formula is [(C−T)/C)]×100, where C and T are the areas consumed by the control and treated leaf disks, respectively.

[1] = test system: brown marmorated stink bugs (BMSB); assay: Repellency as feeding deterrence in brown marmorated stink bugs, treated filter paper with green bean; conditions: compound at 3.5% in a 57% Ethanol:43% water solution; control 38%
Protocol: A test was designed to measure the repellency as feeding deterrence in brown marmorated stink bugs (BMSB). Five replicates of 5 BMSBs were introduced into test arenas, containing one 60 mm×15 mm Petri dish with treated filter papers in which a food source (green bean) was attached, at the start of the test. The small Petri dishes containing the treated filter paper and food source were covered with a fitted Petri dish lid in between observation times, and were removed 5 minutes before each observation time to prevent stink bugs from feeding until sated. The distribution of the BMSBs was observed and documented hourly for 5 hours.

Compound	Increased Repellency vs. Control Repellency (granary weevils) [%]	% Repellency (Popillia japonica) [%]	% Repellency (Dermestid spp.) [%]	% Antifeedent Activity (Plodia interpunctella) [%]	Repellency averaged over 5 hours [1] [%]
CC/C(C)=C/CC/C(C)=C/CC1CCCC1=O (stereo not drawn) [Methyl Apritone]	11	15	15	70	–
CCCCCC1C(=O)CCC1CC(=O)OCCC (stereo not drawn) [Propyl Dihydrojasmonate]	8	15	15	60	100
